Here are results for twelve compounds from US6344457B1, “Amino acid derivatives inhibiting extracellular matrix metalloproteinase and TNF alpha release” (Chiesi Farmaceutici S.p.A., priority 1997, dated 2002).

Assay [1] addresses T1, collagenase of the human monocytic stock U937 (Homo sapiens, UniProt P03956).
T1 construct: the collagenase of the human monocytic stock U937; endogenous in cells; host or cells: U937 human monocytic cell line
T1 sequence (P03956 100-469): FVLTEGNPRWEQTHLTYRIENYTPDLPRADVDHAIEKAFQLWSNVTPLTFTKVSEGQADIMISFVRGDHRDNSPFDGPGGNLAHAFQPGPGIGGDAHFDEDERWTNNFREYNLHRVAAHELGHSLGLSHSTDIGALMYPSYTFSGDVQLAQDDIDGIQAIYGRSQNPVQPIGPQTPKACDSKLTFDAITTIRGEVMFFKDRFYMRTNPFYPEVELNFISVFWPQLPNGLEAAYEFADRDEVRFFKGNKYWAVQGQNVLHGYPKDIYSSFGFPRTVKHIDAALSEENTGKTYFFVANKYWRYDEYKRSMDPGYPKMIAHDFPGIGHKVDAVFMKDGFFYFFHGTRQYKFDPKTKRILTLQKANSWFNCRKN
The experiment in a line: Activity on collagenase. The class given is biochemical. The settings on record: radiomarked collagen, 27° C., 16 hours; read-out: C150 (nM) collagenase. The procedure: The collagenase was incubated at 27° C. for 16 hours with radiomarked collagen, and its activity was determined by the release of soluble peptides produced by the enzymatic breakdown of the collagen. The inhibiting concentration C150 for each compound was determined by measurement of the activity of the enzyme in the presence of the inhibitor at a concentration ranging between 10^−7 and 10^−12 M (the inhibitor is dissolved at a concentration of 10^−2 M in DMSO, then diluted successively by tenths in the buffer: Tris, HCl 150 mM, pH 7.5; NaCl 0.15 M; CaCl2 10 mM).

The target of assay [2] is 92 kDa gelatinase of human origin (Homo sapiens, UniProt P14780). The experiment in a line: Activity on gelatinase, radiomarked gelatin. The assay is classed as biochemical. Particulars: for IC50: test performed with radiomarked gelatin, read-out: C150 (nM) gelatinase 92 kDa*; for gelatinase 92 kDa* (in %): radiomarked gelatin, concentration not given. The procedure:
The anti-gelatinase activity of the compounds according to the invention also was determined on 92 kDa or 72 kDa gelatinase of human origin, in accordance with the operating mode described by Harris, E. D., Krane, S. M.; (Biochem. Biophys. Acta, 258, 566-576, 1972).
The gelatinase was incubated at 37° C. for 16 hours with radiomarked gelatin, and its activity was determined by the release of the soluble peptides produced by the enzymatic breakdown of the gelatin. The inhibiting concentration C150 for each compound was determined by measurement of the activity of the enzyme in the presence of the inhibitor at a concentration ranging between 10^−7 and 10^−12 M (the inhibitor is dissolved in the same manner as for collagenase).

For assay [3], the target named is T2, 72 kDa gelatinase of human origin (Homo sapiens, UniProt P08253).
T2 sequence (P08253 110-660): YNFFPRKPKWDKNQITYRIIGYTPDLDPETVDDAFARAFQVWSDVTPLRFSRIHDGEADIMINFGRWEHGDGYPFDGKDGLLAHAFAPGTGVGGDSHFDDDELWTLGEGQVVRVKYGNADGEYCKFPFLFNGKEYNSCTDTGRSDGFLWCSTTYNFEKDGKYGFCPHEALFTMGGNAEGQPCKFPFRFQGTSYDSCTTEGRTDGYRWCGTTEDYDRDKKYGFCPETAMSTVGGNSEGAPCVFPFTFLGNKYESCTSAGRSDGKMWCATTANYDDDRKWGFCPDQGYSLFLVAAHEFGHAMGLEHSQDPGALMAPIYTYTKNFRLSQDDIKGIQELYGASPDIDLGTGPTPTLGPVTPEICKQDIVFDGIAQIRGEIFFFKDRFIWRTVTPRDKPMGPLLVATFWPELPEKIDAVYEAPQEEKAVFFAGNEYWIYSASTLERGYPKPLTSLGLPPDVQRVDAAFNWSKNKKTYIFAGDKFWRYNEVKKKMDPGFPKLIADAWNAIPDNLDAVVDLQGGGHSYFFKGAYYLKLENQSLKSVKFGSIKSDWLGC
The experiment in a line: Activity on gelatinase, synthetic substrate. The class given is biochemical. Particulars: performed on synthetic substrate; read-out: C150 (nM) gelatinase 72 kDa**. The procedure:
The anti-gelatinase activity of the compounds according to the invention was determined on 72 kDa gelatinase of human origin, in accordance with the operating mode described by Knight, C. G., Willenbrock, F., Murphy, G. (FEBS Letters, 296 (3), 263-266, 1992).
The gelatinase was incubated at 37° C. for 10 minutes, and its activity was determined by the increase in fluorescence of the product of Mca-Pro-Leu breakdown of the Mca-Pro-Leu-Gly-Leu-Dpa-Ala-Arg-NH2 synthetic substrate.
The inhibiting concentration C150 for each compound was determined by measurement of the activity of the enzyme in the presence of the inhibitor at a concentration ranging between 10^−7 and 10^−12 M (the inhibitor is dissolved at a concentration of 10^−2 M in DMSO, then diluted successively by tenths in DMSO to 10^−4 M, then in the buffer: Tris, HCl 50 mM+0.05% Brij 35; CaCl2 10 mM; NaCl 0.15 M).

In assay [4] the target is stromelysine of human origin (Homo sapiens, UniProt P08254). As to the kind of experiment: Activity on stromelysine. The assay is classed as biochemical. Particulars: radiomarked transferrin, 37° C., 16 hours; read-out: C150 (nM) stromelysine. The procedure: The stromelysine was incubated at 37° C. for 16 hours with radiomarked transferrin, and its activity was determined by the release of the soluble peptides produced by the enzymatic breakdown of the transferrin. The inhibiting concentration C150 for each compound was determined by measurement of the activity of the enzyme in the presence of the inhibitor at a concentration ranging between 10^−7 and 10^−12 M (the inhibitor is dissolved in the same manner as for collagenase).

The subject of assay [5] is release of TNF from the peritoneal macrophages of mice stimulated by LPS. The experiment in a line: Inhibition of the production of TNF in vitro. The settings on record: Peritoneal macrophage; mouse peritoneal macrophages, LPS 100 ng/ml; read-out: C150 (μM) TNF. The assay is classed as cell-based. The procedure:
The capacity of the compounds according to this invention to inhibit the release of TNF was determined from the peritoneal macrophages of mice stimulated by LPS (Lang, F., Robert, […], Petit, J. Y., J. Pharmacol. Exp. Ther., 275, 171-176, 1995). After an adhesion phase of 2 hours, the cells were treated for 1 hour with the compound to be tested at concentrations ranging between 10^-6 to 10^-9 M (the inhibitor is dissolved in DMSO at 10^-2 M, then at 5.10^-3 M in RPMI 1640 with 5% SVF, then diluted successively by tenths in the same medium), then stimulated by the addition of LPS (100 ng/ml in final concentration). Three hours later, the biological activity of the TNF in the supernatants was determined by a cytotoxicity test using the murine stock L929 in accordance with the operating procedure described by Band, G., Lin, […]., Evans, C. H. (Bioch. Biophys. Acta, 1134, 309-318, 1982). The pg/ml concentration of the TNF of the samples was determined from a murine αTNF standard curve, thus making it possible to define the inhibiting concentration […] of the compounds studied.

Sequence of 92 kDa gelatinase of human origin (P14780 94-707): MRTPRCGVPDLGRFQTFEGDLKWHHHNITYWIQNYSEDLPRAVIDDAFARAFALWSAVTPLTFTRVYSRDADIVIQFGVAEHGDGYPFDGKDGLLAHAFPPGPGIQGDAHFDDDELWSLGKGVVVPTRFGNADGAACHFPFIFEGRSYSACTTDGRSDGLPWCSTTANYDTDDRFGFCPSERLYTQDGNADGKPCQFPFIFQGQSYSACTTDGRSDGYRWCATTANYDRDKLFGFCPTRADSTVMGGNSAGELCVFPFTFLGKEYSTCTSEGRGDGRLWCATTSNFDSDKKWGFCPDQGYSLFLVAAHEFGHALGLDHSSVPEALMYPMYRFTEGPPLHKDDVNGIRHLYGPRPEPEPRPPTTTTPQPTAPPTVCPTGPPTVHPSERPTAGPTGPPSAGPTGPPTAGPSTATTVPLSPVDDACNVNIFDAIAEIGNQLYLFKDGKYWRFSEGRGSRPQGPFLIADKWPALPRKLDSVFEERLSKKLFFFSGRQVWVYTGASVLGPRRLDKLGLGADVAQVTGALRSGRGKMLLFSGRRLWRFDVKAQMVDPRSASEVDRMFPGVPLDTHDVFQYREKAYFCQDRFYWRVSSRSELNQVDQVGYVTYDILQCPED
Sequence of stromelysine of human origin (P08254 100-477): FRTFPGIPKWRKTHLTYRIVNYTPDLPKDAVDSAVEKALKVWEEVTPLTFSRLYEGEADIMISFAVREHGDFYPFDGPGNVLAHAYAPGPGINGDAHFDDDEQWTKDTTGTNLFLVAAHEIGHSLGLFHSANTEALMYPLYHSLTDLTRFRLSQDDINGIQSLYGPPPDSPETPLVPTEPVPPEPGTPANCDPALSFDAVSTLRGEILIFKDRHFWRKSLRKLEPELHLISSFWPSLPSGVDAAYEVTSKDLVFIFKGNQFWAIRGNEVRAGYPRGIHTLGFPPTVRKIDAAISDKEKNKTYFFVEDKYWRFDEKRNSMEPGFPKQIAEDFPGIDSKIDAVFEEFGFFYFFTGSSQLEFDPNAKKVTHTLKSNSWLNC

For the compound `CNC(=O)[C@@H](NC(=O)[C@](O)(CC(C)C)[C@H](C)C(=O)NO)C(C)(C)C` [Example 2, N-2-(S)[1(S)(hydroxycarbamoyl)ethyl]-2(S) hydroxy-4-methylpentanoyl 3-methyl-(S) valine N-methylamide], the IC50 in assay [1] stood at 18 nM; in assay [2] it was 16 nM; in assay [3] it was 3.4 nM; in assay [4], 60 nM.

On to `CNC(=O)[C@H](Cc1ccc(Cl)cc1)NC(=O)[C@](O)(CC(C)C)[C@H](O)C(=O)NO` [Example 3, N-2 (S) [(S) hydroxy (S) hydroxycarbamoylmethyl] 2(S) hydroxy 4-methyl pentanoyl L-4-chlorophenylalanine N-methylamide], for which the IC50 is 50 nM in assay [1]; 54 nM in assay [2]; 6.7 nM in assay [3]; greater than 1000 nM in assay [4]; 3.2 µM in assay [5].

`COc1ccc(C[C@H](NC(=O)[C@](O)(CC(C)C)[C@H](C)C(=O)NO)C(=O)NCc2ccccc2)cc1` [Example 5, N-2(S)[-1-(S)(hydroxycarbamoyl)-ethyl]-2(S) hydroxy-4-methyl 2entanol O methyl-L-tyrosine phenylmethylamide]: the IC50 in assay [1] came to 12 nM; in assay [2], 0.5 nM; in assay [3], 2.4 nM; in assay [4] it was 11 nM.

As for `CNC(=O)[C@H](Cc1ccc(OC)cc1)NC(=O)[C@](O)(C(C)C)[C@H](C)C(=O)NO` [Example 7, N-2(S) [-1-(S) hydroxycarbamoyl 1(S)ethyl] 2(S) hydroxy-3 methyl butanoyl O-methyltyrosine N-methylamide], the IC50 came to 30 nM in assay [1], 17 nM in assay [2], 18 nM in assay [3] and 2 µM in assay [5].

In the case of `CNC(=O)[C@H](Cc1ccc(N)cc1)NC(=O)[C@](O)(CC(C)C)[C@H](C)C(=O)NO` [Example 9, N-2(S)[1(S) (hydroxycarbamoyl) 1(S)ethyl]2-(S) hydroxy-4-methyl pentanoyl L-4-amino phenylalanine N-methylamide], the IC50 in assay [1] came to 11 nM; in assay [2], 2 nM; in assay [3] it was 1.6 nM; in assay [4], 50 nM; in assay [5] it was 2.2 µM.

Consider `CSCCNC(=O)[C@H](Cc1ccc(Cl)cc1)NC(=O)[C@](O)(CC(C)C)[C@H](C)C(=O)NO` [Example 13, N-2(S)[-1-(S)(hydroxycarbamoyl)-1 ethyl]-2(S) hydroxy-4-methylpentanoylL-4-chlorophenylalanine N-(2 methylthio-1-ethyl) amide], for which the IC50 came out at 10 nM in assay [1]; 0.005 nM in assay [2]; 1.6 nM in assay [3]; 20 nM in assay [4]; 0.15 µM in assay [5].

In the case of `CC(C)C[C@@](O)(C(=O)N[C@@H](Cc1ccc(Cl)c(Cl)c1)C(=O)NCCOCCO)[C@H](C)C(=O)NO` [Example 19, N-2(S)[1(S)hydroxycarbamoyl-1 ethyl]-2 (S) hydroxy 4-methylpentanoyl L-3,4 dichlorophenylalanine N-hydroxyethyloxyethylamide], the IC50 is 7 nM in assay [1], 0.001 nM in assay [2], 0.7 nM in assay [3] and 0.5 µM in assay [5].

In the case of `CNC(=O)[C@H](Cc1ccc(Cl)cc1Cl)NC(=O)[C@](O)(CC(C)C)[C@H](C)C(=O)NO` [Example 20, N-2(S)[1(S)hydroxycarbamoyl-1 ethyl]-2 (S) hydroxy 4-methylpentanoyl L-2,4-dichlorophenylalanine N-methylamide], the IC50 in assay [1] was 3.7 nM; in assay [2] it was 0.2 nM; in assay [3], 1.6 nM; in assay [5], 1 µM.

On to `COCCOCCNC(=O)[C@H](Cc1ccc(Cl)c(Cl)c1)NC(=O)[C@](O)(CC(C)C)[C@H](C)C(=O)NO` [Example 23, N-2(S) [1(S) hydroxycarbamoyl-1 ethyl]-2(S) hydroxy 4-methyl pentanoyl L-3,4-dichlorophenylalanine N-(2-(2-methoxyethoxy)1-ethyl)amide], for which the “gelatinase 92 kDa* (in %)” value in assay [2] was 60%. The IC50 in assay [3] was 0.14 nM; in assay [5], 0.37 µM.

In the case of `CNC(=O)[C@H](Cc1ccc(OC)cc1)NC(=O)[C@](O)(CC(C)C)[C@H](OC)C(=O)NO` [Example 31, N-2(S)[(S) hydroxycarbamoyl(S)methoxy]methyl 2(S) hydroxy-4 methyl pentanoyl O-methyl tyrosine N-methylamide], the IC50 in assay [1] was determined as 120 nM; in assay [2], 140 nM; in assay [3], 18 nM; in assay [4], 90 nM.

Turning to `C[C@H](C(=O)NO)[C@@](O)(CCCc1ccccc1)C(=O)N[C@@H](CC1CCCCC1)C(=O)NCCc1ccccc1` [Example 32, N-2-(S)[1(S)(hydroxycarbamoyl)ethyl]2(S) hydroxy 5-phenyl pentanoyl L-3-cyclohexylalanine 2 phenylethylamide], the IC50 in assay [2] was 1.9 nM; in assay [3], 0.8 nM; in assay [5] it was greater than 1 µM.

Consider `CNC(=O)[C@H](Cc1ccc(Cl)c(Cl)c1)NC(=O)[C@](O)(CCCc1ccccc1)[C@H](C)C(=O)NO` [Example 33, N-2-(S)[1(S)(hydroxycarbamoyl)ethyl]2(S) hydroxy 5-phenylpentanoyl L-3,4-dichlorophenylalanine N-methylamide], for which the results for the IC50 in assay [1], in assay [3] and in assay [5] were 225 nM, 0.01 nM and 0.58 µM, respectively. Further, in assay [2], the “gelatinase 92 kDa* (in %)” value is given as 86%.
